Positions of bridges follow the written chain, without caps; N, C: chain ends. Non-standard residues stand in square brackets, D forms with d. Residues, ends and D or L forms follow the SMILES beside them. *: point of attachment. X1 = C[N+](C)(C)[C@@H](Cc1ccccc1)C(=O)*; NMeF = CN[C@@H](Cc1ccccc1)C(=O)O
What was measured:
[1] = In vitro stability testing in 2% hog kidney homogenate; assay type: in vitro ADME; settings: pig, kidney or brush border membranes, pH 7
Protocol: Like most small linear polypeptides, motilin is believed to be metabolized by the brush border cells of the kidney. Therefore, kidney homogenate was chosen as the model system for assessing the relative in vivo biostability of the peptides of this invention. All peptides to be studied were incubated in hog kidney (Pel Freeze, Inc., Rogers, Ark.) (2% w/v; final volume=4 mls; buffer=HEPES pH 7.0) at 25° C. […] In order to determine suitable incubation times and sampling intervals, two experiments were conducted with each polypeptide. The first run served as a rough estimate of peptide stability. All sampling was performed in duplicate. Sample volume was 180 μl. Sample clean-up was performed by addition of 20 μl of 100% TCA (final volume=200 μl; final TCA concentration=10%). The sample was vortexed from 5 to 10 seconds to ensure equilibration, then centrifuged to spin out the precipitated proteins. Analysis was carried out on a Waters HPLC system with autoinjector, a 5 μVydac C-18 analytical column, and a Waters 481 UV detector set at 214 nm. Injection volume was 80 μl. Initial solvent conditions were 20% acetonitrile / 80% (0.1%) TFA in Milli-Q water with a 35 minute gradient running to 63% acetonitrile / 37% (0.1%) TFA at 1 ml/min. Polypeptide substrate and metabolite peaks were ratioed to the internal standard and the duplicate sample ratios were averaged. The average ratio for the peptide substrate was expressed as a percentage and plotted versus time. First-order kinetics was assumed for data treatment. The rate of disappearance of the substrate was calculated using the Enzfitter program (Biosoft). Relative half-lives were determined from the relationship: […]

[2] = biological target: rabbit duodenal smooth muscle strip (Oryctolagus cuniculus, UniProt G1T803); assay: Rabbit duodenal smooth muscle strip tissue bath assay (contractility); assay type: cell-based; settings: negative logarithm of dose giving 50% of maximal response to motilin; isotonic contraction of rabbit duodenum segments
Sequence of rabbit duodenal smooth muscle strip (G1T803 1-400): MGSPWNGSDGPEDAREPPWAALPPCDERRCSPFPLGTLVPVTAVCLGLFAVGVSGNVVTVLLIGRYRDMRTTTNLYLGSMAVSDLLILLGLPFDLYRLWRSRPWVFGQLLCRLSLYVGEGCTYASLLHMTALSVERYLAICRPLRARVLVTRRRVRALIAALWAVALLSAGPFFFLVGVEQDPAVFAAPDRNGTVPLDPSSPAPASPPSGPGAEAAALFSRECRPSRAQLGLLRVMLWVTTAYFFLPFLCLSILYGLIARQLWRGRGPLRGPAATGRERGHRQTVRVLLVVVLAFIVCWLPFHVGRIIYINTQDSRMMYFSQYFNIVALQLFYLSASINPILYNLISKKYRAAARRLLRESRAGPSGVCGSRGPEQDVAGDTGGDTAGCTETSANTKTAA
Protocol: The experimental protocol consisted of an equilibration period of 1 hour; a challenge with 10^-4 M acetylcholine followed by a wash-out period; a cumulative dose-response curve of a compound with, at the end, the addition of 10^-7 M motilin; and finally 10^-4 M acetylcholine. If the final response to 10^-4 M acetylcholine differed by more than 5% from the initial response, the results were discarded.

motilin receptor = biological target: T1, motilin receptor (Oryctolagus cuniculus, UniProt G1T803); assay: Motilin receptor binding affinity (displacement of [125I-Tyr7,Nle13]motilin(porcine)); parameters: species or system rabbit; settings: negative logarithm of concentration displacing 50% of [125I-Tyr7,Nle13]motilin(porcine) bound to rabbit antral smooth muscle membranes; read-out: pIC50 (converted)
T1 construct: from tissue; host or cells: rabbit antral smooth muscle membranes
T1 sequence (G1T803 1-400): as above
Protocol: The motilin receptor binding affinity of the peptides of this invention was determined by using the general procedure of Bormans, Peeters and Vantrappen, Regul. […] Fitting was performed using the iterative least-squares procedure of the SAS-software package (SAS Institute, Inc., Cary, N.C., USA).

[3] = in vivo; cited from earlier work

Structure (SMILES) | half-life at 0.5 mg/ml [1] | pEC50 [2] | IC50 (motilin receptor) | half-life (t1/2) [3]
CC[C@H](C)[C@H](NC(=O)[C@@H]1CCCN1C(=O)[C@@H](NC(=O)[C@H](Cc1ccccc1)NC)C(C)C)C(=O)N[C@@H](Cc1ccccc1)C(=O)N[C@H](C(=O)N[C@@H](Cc1ccc(O)cc1)C(=O)NCC(=O)N[C@@H](CCC(=O)O)C(=O)N[C@H]1CC(=O)NCCCC[C@@H](C(=O)N[C@@H](CCCCN)C(N)=O)NC(=O)[C@H](CC(C)C)NC(=O)[C@@H](CCCNC(=N)N)NC(=O)[C@H](C)NC1=O)[C@@H](C)O [SEQ ID NO:12, cyclo^10,14 [N-MePhe^1,Asp^10,Ala^11,D-Arg^12,Leu^13,Lys^14,Lys^15]pMOT(1-15) amide] (H-[NMeF]VPIFTYGEDA[dR]LKK-NH2; lactam 10-14) | 16 min | 7.81 | 1.74 nM | 
CC[C@H](C)[C@H](NC(=O)[C@@H]1CCCN1C(=O)[C@@H](NC(=O)[C@H](Cc1ccccc1)NC)C(C)C)C(=O)N[C@@H](Cc1ccccc1)C(=O)N[C@H](C(=O)N[C@@H](Cc1ccc(O)cc1)C(=O)NCC(=O)N[C@@H](CCC(=O)O)C(=O)N[C@H]1CCC(=O)NCCCC[C@@H](C(=O)N[C@@H](CCCCN)C(N)=O)NC(=O)[C@H](CC(C)C)NC(=O)[C@@H](CCCNC(=N)N)NC(=O)[C@H](C)NC1=O)[C@@H](C)O [SEQ ID NO:15, cyclo^10,14 [N-MePhe^1,Glu^10,Ala^11,D-Arg^12,Leu^13,Lys^14,Lys^15]pMOT(1-15) amide] (H-[NMeF]VPIFTYGEEA[dR]LKK-NH2; lactam 10-14) | 39 min | 7.68 | 1.02 nM | 
CC[C@H](C)[C@H](NC(=O)[C@@H]1CCCN1C(=O)[C@@H](NC(=O)[C@H](Cc1ccccc1)[N+](C)(C)C)C(C)C)C(=O)N[C@@H](Cc1ccccc1)C(=O)N[C@H](C(=O)N[C@@H](Cc1ccc(O)cc1)C(=O)NCC(=O)N[C@@H](CCC(=O)O)C(=O)N[C@H]1CC(=O)NCCCC[C@@H](C(N)=O)NC(=O)[C@H](CC(C)C)NC(=O)[C@H](CCCNC(=N)N)NC(=O)[C@H](C)NC1=O)[C@@H](C)O [SEQ ID NO:16, cyclo^10,14 [Me3 N^+ Phe^1,Asp^10,Ala^11 Leu^13,Lys^14]pMOT(1-14) amide] (X1-VPIFTYGEDARLK-NH2; lactam 9-13) | 103 min | 6.98 | 2.24 nM | 
CC[C@H](C)[C@H](NC(=O)[C@@H]1CCCN1C(=O)[C@@H](NC(=O)[C@@H](N)Cc1ccccc1)C(C)C)C(=O)N[C@@H](Cc1ccccc1)C(=O)N[C@H](C(=O)N[C@@H](Cc1ccc(O)cc1)C(=O)NCC(=O)N[C@@H](CCC(=O)O)C(=O)N[C@@H](CC(C)C)C(=O)N[C@@H](CCC(N)=O)C(=O)N[C@@H](CCCNC(=N)N)C(=O)N[C@@H](CCSC)C(=O)N[C@@H](CCC(N)=O)C(=O)N[C@@H](CCC(=O)O)C(=O)N[C@@H](CCCCN)C(=O)N[C@@H](CCC(=O)O)C(=O)N[C@@H](CCCNC(=N)N)C(=O)N[C@@H](CC(N)=O)C(=O)N[C@@H](CCCCN)C(=O)NCC(=O)N[C@@H](CCC(N)=O)C(=O)O)[C@@H](C)O [motilin] |  |  |  | 4.5 min

The next lines start with results.

half-life at 0.5 mg/ml [1] | pEC50 [2] | IC50 (motilin receptor) | Structure (SMILES) | half-life (t1/2) [3]
31 min | 7.95 | 0.575 nM | CC[C@H](C)[C@H](NC(=O)[C@@H]1CCCN1C(=O)[C@@H](NC(=O)[C@H](Cc1ccccc1)NC)C(C)C)C(=O)N[C@@H](Cc1ccccc1)C(=O)N[C@H](C(=O)N[C@@H](Cc1ccc(O)cc1)C(=O)NCC(=O)N[C@@H](CCC(=O)O)C(=O)N[C@H]1CC(=O)NCCCC[C@@H](C(N)=O)NC(=O)[C@H](CC(C)C)NC(=O)[C@H](CCCNC(=N)N)NC(=O)[C@H](C)NC1=O)[C@@H](C)O [SEQ ID NO:17, cyclo^10,14 [N-MePhe^1,Asp^10,Ala^11,Leu^13,Lys^14]pMOT(1-14) amide] (H-[NMeF]VPIFTYGEDARLK-NH2; lactam 10-14) | 
413 min | 7.72 | 1.78 nM | CC[C@H](C)[C@H](NC(=O)[C@@H]1CCCN1C(=O)[C@@H](NC(=O)[C@H](Cc1ccccc1)[N+](C)(C)C)C(C)C)C(=O)N[C@@H](Cc1ccccc1)C(=O)N[C@H](C(=O)N[C@@H](Cc1ccc(O)cc1)C(=O)NCC(=O)N[C@@H](CCC(=O)O)C(=O)N[C@H]1CC(=O)NCCCC[C@@H](C(=O)N[C@@H](CCCCN)C(N)=O)NC(=O)[C@H](CC(C)C)NC(=O)[C@H](CCCNC(=N)N)NC(=O)[C@H](C)NC1=O)[C@@H](C)O [SEQ ID NO:18, cyclo^10,14 [Me3 N^+ Phe^1,Asp^10,Ala^11,Leu^13,Lys^14,Lys^15]pMOT(1-15) amide] (X1-VPIFTYGEDARLKK-NH2; lactam 9-13) | 
85 min | 7.72 | 2.88 nM | CC[C@H](C)[C@H](NC(=O)[C@@H]1CCCN1C(=O)[C@@H](NC(=O)[C@H](Cc1ccccc1)[N+](C)(C)C)C(C)C)C(=O)N[C@@H](Cc1ccccc1)C(=O)N[C@H](C(=O)N[C@@H](Cc1ccc(O)cc1)C(=O)NCC(=O)N[C@@H](CCC(=O)O)C(=O)N[C@H]1CC(=O)NCCCC[C@@H](C(=O)N[C@@H](CCCCN)C(N)=O)NC(=O)[C@H](CC(C)C)NC(=O)[C@@H](CCCNC(=N)N)NC(=O)[C@H](C)NC1=O)[C@@H](C)O [SEQ ID NO:19, cyclo^10,14 [ME3 N^+ Phe^1,Asp^10,Ala^11,D-Arg^12,Leu^13,Lys^14,Lys^15]pMOT(1-15) amide] (X1-VPIFTYGEDA[dR]LKK-NH2; lactam 9-13) | 
49 min | 7.34 | 1.55 nM | CC[C@H](C)[C@H](NC(=O)[C@@H]1CCCN1C(=O)[C@@H](NC(=O)[C@H](Cc1ccccc1)[N+](C)(C)C)C(C)C)C(=O)N[C@@H](Cc1ccccc1)C(=O)N[C@H](C(=O)N[C@@H](Cc1ccc(O)cc1)C(=O)NCC(=O)N[C@@H](CCC(=O)O)C(=O)N[C@H]1CCC(=O)NCCCC[C@@H](C(=O)N[C@@H](CCCCN)C(N)=O)NC(=O)[C@H](CC(C)C)NC(=O)[C@@H](CCCNC(=N)N)NC(=O)[C@H](C)NC1=O)[C@@H](C)O [SEQ ID NO:20, cyclo^10,14 [Me3 N^+ Phe^1,Glu^10,Ala^11,D-Arg^12,Leu^13,Lys^14,Lys^15]pMOT(1-15) amide] (X1-VPIFTYGEEA[dR]LKK-NH2; lactam 9-13) | 
267 min | 7.76 | 1.35 nM | CC[C@H](C)[C@H](NC(=O)[C@@H]1CCCN1C(=O)[C@@H](NC(=O)[C@H](Cc1ccccc1)[N+](C)(C)C)C(C)C)C(=O)N[C@@H](Cc1ccccc1)C(=O)N[C@H](C(=O)N[C@@H](Cc1ccc(O)cc1)C(=O)NCC(=O)N[C@@H](CCC(=O)O)C(=O)N[C@H]1CCC(=O)NCCCC[C@@H](C(=O)N[C@@H](CCCCN)C(N)=O)NC(=O)[C@H](CC(C)C)NC(=O)[C@H](CCCNC(=N)N)NC(=O)[C@H](C)NC1=O)[C@@H](C)O [SEQ ID NO:21, cyclo^10,14 [Me3 N^+ Phe^1,Glu^10,Ala^11,Leu^13,Lys^14,Lys^15]pMOT(1-15) amide] (X1-VPIFTYGEEARLKK-NH2; lactam 9-13) | 
35 min | 8.73 | 0.912 nM | CC[C@H](C)[C@H](NC(=O)[C@@H]1CCCN1C(=O)[C@@H](NC(=O)[C@H](Cc1ccccc1)NC)C(C)C)C(=O)N[C@@H](Cc1ccccc1)C(=O)N[C@H](C(=O)N[C@@H](Cc1ccc(O)cc1)C(=O)NCC(=O)N[C@@H](CCC(=O)O)C(=O)N[C@H]1CCC(=O)NCCCC[C@@H](C(N)=O)NC(=O)[C@H](CC(C)C)NC(=O)[C@H](CCCNC(=N)N)NC(=O)[C@H](CCC(N)=O)NC1=O)[C@@H](C)O [SEQ ID NO:22, cyclo^10,14 [N-MePhe^1,Glu^10,Leu^13,Lys^14]pMOT(1-14) amide] (H-[NMeF]VPIFTYGEEQRLK-NH2; lactam 10-14) | 

From patent US5734012A, “Cyclic motilin-like polypeptides with gastrointestinal motor stimulating activity” (Ohmeda Pharmaceutical Products Division Inc., priority 1996, dated 1998)
